Counter-ions that a name gives are not always drawn.
What was measured:
[1] = Open, multicenter phase Ib/II clinical study, first-line 14C12H1L1 plus anlotinib hydrochloride: adverse events; format: in vivo, human; settings: patients on combined 14C12H1L1 + anlotinib, events related to the labelled treatment; for TRAE (incidence of treatment-related adverse events) / ≥ grade 3 TRAEs: by Jun. 27, 2019
From the text: This example discloses the results of an early open, multicenter phase Ib/II clinical study on first-line treatment of unresectable hepatocellular carcinoma with combined use of 14C12H1L1 and anlotinib hydrochloride.
This study is an open, multicenter phase Ib/II clinical study aimed at evaluating the effectiveness, i.e. safety, of 14C12H1L1 in combination with anlotinib in the first line treatment of unresectable hepatocellular carcinoma.
Secondary endpoints: (1) disease control rate (DCR), duration of response (DOR), time to response (TTR), progression-free survival (PFS), and treatment past progression (TPP) being evaluated by investigators according to RECISIT v1.1; (2) overall survival (OS); (3) safety evaluation: incidence and severity of AEs, clinically significant abnormal laboratory test results.
14C12H1L1 injection, 100 mg/10 mL solution; manufacturer: Akeso Tiancheng Guangdong Co., Ltd.; stored at 2-8° C. in the absence of light.
Anlotinib hydrochloride capsules (FOCUS V®), 8 mg/capsule; manufacturer: Chia Tai Tianging Pharmaceutical Group Co., Ltd.; sealed and be away from light.
14C12H1L1 in combination with anlotinib, wherein the 14C12H1L1: 200 mg, Q3W intravenous injection; anlotinib: taken once a day, 8 mg each time, 14 days of treatment plus 7 days of interruption, i.e., a treatment cycle of 21 days.

[2] = test system: mouse liver cancer H22 subcutaneous xenograft tumor; experiment: Efficacy on mouse liver cancer H22 subcutaneous xenograft tumor; format: in vivo; settings: for Mean tumor volume (mm^3) D0: D0, day of first administration (baseline), KM mice, 10 per group; for % T/C D17 / Tumor growth inhibition (%): anlotinib hydrochloride 1 mg/kg i.g. QD×17, lenvatinib mesylate 5 mg/kg i.g. QD×17, mPD-1 1 mg/kg IP 5 times; for % T/C D17 / Tumor growth inhibition (%) / Mean tumor volume (mm^3) D17: D17; for Mean tumor volume (mm^3) D17: anlotinib hydrochloride 1 mg/kg i.g. QD×17, lenvatinib mesylate 5 mg/kg i.g. QD×17, mPD-1 1 mg/kg IP D0, D3, D7, D10, D14; for Complete regression / Partial regression: number of animals out of 10 per group
Description: The H22 cells were cultured in a 10-cm petri dish with RPMI 1640 medium containing 10% fetal bovine serum, penicillin and streptomycin in an incubator at 37° C. and 5% CO2. Subculturing was carried out twice a week and cells were collected, counted and inoculated when the cells grew exponentially.
KM mice, 6-7 weeks old, female, purchased from Shanghai JSJ Laboratory Animal Co. Ltd. Production license No.: SCXK (Shanghai) 2013-0006; animal certification No.: 311620400013790. Breeding environment: SPF grade.
The experimental index is to study the influence of the drug on the tumor growth, and the specific index is T/C (%) or tumor growth inhibition TGI (%).
Tumor diameters were measured twice weekly with a vernier caliper and tumor volume (V) was calculated according to the following formula: V=½×a×b^2, where a and b represent length and width, respectively.
T/C (%)=(T−T0)/(C−C0)×100, where T and C are the tumor volumes of animals at the end of the experiment in the test group and control group, respectively; T0 and C0 are the tumor volumes of animals at the beginning of the experiment in the test group and control group, respectively. Tumor growth inhibition (TGI)(%)=100−T/C(%). Tumor growth inhibition (TGI)(%)=100−(T−T0)/T0×100 when tumor started to regress.
If the volume of tumor shrinks compared with its initial volume, i.e., T<T0 […], it is defined as partial regression (PR) of tumor; if the tumor completely disappears, it is defined as complete regression (CR) of tumor.
(§1) H22 cells were inoculated to each mouse subcutaneously, and when the tumor grew to 100-200 mm^3, the mice were randomly grouped and intragastrically (i.g.) administered or intraperitoneal (IP) injected with drug; the mice in the solvent group were intragastrically administrated with distilled water with the same volume; the administration volume was 0.1 mL/10 g body weight; specific administration dosages and regimes are shown in Table 4.
After the experiment was completed, or when the tumor volume of the animals reached the euthanization endpoint of 1500 mm^3, the animals were put to death through carbon dioxide inhalation, followed by dissecting to take the tumor tissue and weighing and photographing.

[3] = Body weight and tolerance of H22 tumor-bearing mice; format: in vivo
Description: The use and welfare of the laboratory animals were carried out in compliance with the provisions of Association for Assessment and Accreditation of Laboratory Animal Care, International (AAALAC). The health and death of the animals are monitored daily and routine examinations include observation of the effects of the test substance or drug on the daily performance of the animals, such as behavioral activities, weight changes, appearance, etc.
as §1

[4] = phase II trial; cited from earlier work
[5] = test system: advanced NSCLC; settings: phase III; Chinese patients; cited from earlier work

| Compound | TRAE (incidence of treatment-related adverse events) [1] [%] | ≥ grade 3 TRAEs [1] [%] | SAE [1] [%] | TRAEs resulting in the withdrawal [1] [%] | Mean tumor volume (mm^3) D0 [2] [mm^3] | % T/C D17 [2] [%] | Tumor growth inhibition (%) [2] [%] | Mean tumor volume (mm^3) D17 [2] [mm^3] | Complete regression ([2]; same doses) | Partial regression ([2]; same doses) | body weight / tolerance of tumor-bearing mice ([3]; D0-D17, anlotinib hydrochloride 1 mg/kg, lenvatinib mesylate 5 mg/kg, mPD-1 1 mg/kg) | overall survival [4] | progression-free survival [4] | overall survival and progression-free survival [5] | tolerability [5] | tumor growth / efficacy in words ([2]; D0-D17, same doses, comparison between groups) | body weight / tolerance of tumor-bearing mice ([3]; mouse, in vivo) |
| --- | --- | --- | --- | --- | --- | --- | --- | --- | --- | --- | --- | --- | --- | --- | --- | --- | --- |
| 14C12H1L1: anti-PD-1 monoclonal antibody (Akeso Bioscience); CN106977602A; CDRs SEQ ID NO: 25-30 | 62.5 | 6.25 | 6.25 | 6.25 | – | – | – | – | – | – | – | – | – | – | – | – | – |
| COc1cc2c(Oc3ccc4[nH]c(C)cc4c3F)ccnc2cc1OCC1(N)CC1 [Anlotinib hydrochloride, 1-[[[4-(4-fluoro-2-methyl-1H-indol-5-yl)oxy-6-methoxyquinolin-7-yl]oxy]methyl]cyclopropylamine hydrochloride] | – | – | – | – | 131.4 | 38.3 | 61.7 | 975.3 | 0 | 0 | no symptom like obvious weight loss | – | – | – | – | – | – |
| COc1cc2c(Oc3ccc4[nH]c(C)cc4c3F)ccnc2cc1OCC1(N)CC1 [Anlotinib, 1-[[[4-(4-fluoro-2-methyl-1H-indol-5-yl)oxy-6-methoxyquinolin-7-yl]oxy]methyl]cyclopropylamine] | 75 | 12.5 | 12.5 | 12.5 | – | – | – | – | – | – | – | potential benefit for overall survival | improve progression-free survival | extended overall survival and progression-free survival | well tolerated | – | – |
| COc1cc2nccc(Oc3ccc(NC(=O)NC4CC4)c(Cl)c3)c2cc1C(N)=O [Lenvatinib mesylate] | – | – | – | – | 127.6 | 21.0 | 79 | 590.8 | 0 | 0 | – | – | – | – | – | obviously inhibits the growth | no symptom like obvious weight loss |
